Experimental data: US10328075B2, “Method of treatment and compounds for use therein” (Baker Heart and Diabetes Institute, priority 2015, dated 2019)
Like-named read-outs stand apart in the source and are kept apart here.

Target: T1, hFPR1 (Homo sapiens, UniProt P21462)
T1 construct: expressed in transfected cells
T1 sequence (P21462 1-350): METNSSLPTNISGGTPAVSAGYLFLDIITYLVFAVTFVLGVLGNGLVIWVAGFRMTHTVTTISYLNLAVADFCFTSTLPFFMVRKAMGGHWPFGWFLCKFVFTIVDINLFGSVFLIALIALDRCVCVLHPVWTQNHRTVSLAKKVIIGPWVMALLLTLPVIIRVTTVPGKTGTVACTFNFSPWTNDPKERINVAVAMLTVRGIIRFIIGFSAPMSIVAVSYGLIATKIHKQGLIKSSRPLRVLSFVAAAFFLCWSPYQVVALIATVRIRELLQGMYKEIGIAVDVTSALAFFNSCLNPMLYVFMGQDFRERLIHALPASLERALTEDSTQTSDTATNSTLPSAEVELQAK
Assay: ERK1/2 phosphorylation (AlphaScreen SureFire) in hFPR1-FlpIn-CHO cells
Assay type: cell-based
Source text: cDNDA construct and generation of stable cell lines: cDNA in pcDNA3.1^+ encoding the human formyl peptide receptors (FPR) subtypes, hFPR1, hFPR2 and hFPR3 was obtained from Invitrogen. The sequences for 3 hFPR receptors were amplified by PCR and cloned into the Gateway entry vector, pDONR202™, using the BP clonase enzyme mix, according to the manufactures' instructions (Invitrogen Inc, Carlsbad, Calif., USA). All hFPR receptors constructs in pDONR201™ were subsequently transfected into the pEF5/FRT/V5/dest vector using the LR clonase enzyme mix (Invitrogen). Receptor constructs (pEF5/FRT/V5/dest) were used to transfect FIp-In CHO cells as described previously (Valant C et al., PNAS, 2014). Cells were selected using 500 μg/mL hydromycin to generate cell lines stably expressing each receptor construct. Cells were maintained and cultured in high glucose DMEM supplemented with 10% FBS, 16 mM HEPES and 500 μg/mL hydromycin at 37° C. under a humidified atmosphere containing 5% CO2.
In the various assays described below, cells were plated into 96-well transparent cell culture plates at 4×10^4 cells per well, cultured overnight in serum-free media at 37° C. in 5% CO2.
Measurement of extracellular signal regulated kinase 1 and 2 phosphorylation (pERK1/2): Initial ERK1/2 phosphorylation at Thr202/Tyr204 time-course experiments were performed to determine the time at which ERK1/2 phosphorylation was maximal after stimulation by each agonist. Cells were seeded onto transparent 96-well cell culture plates at 4×10^4 cells per well. After 6 h, cells were washed once with PBS, and then incubated in serum-free DMEM overnight, to allow FBS-stimulated phosphorylated ERK1/2 levels to subside. […] 10% (v/v) FBS was used as a positive control, with vehicle controls also included. The reaction was terminated by removal of study drugs and lysis of cells with 100 μL of SureFire lysis buffer (TGR Biosciences). Cell were lysed in SureFire lysis buffer and transferred to 384-well opaque proxiplates. Under low-light conditions, a 1:120 (v:v) dilution of AlphaScreen beads (both acceptor and donor):Surefire reaction buffer was prepared, which was mixed with the activation buffer in a ratio of 6:1 (v:v), respectively. Plates were incubated in the dark at 37° C. for 1 h before the fluorescence signal was measured by a Fusion-α plate reader (PerkinElmer Life and Analytical Sciences, Foster city, CA, USA) with standard AlphaScreen settings. Data were normalized to the maximal response elicited by 10% (v/v) FBS at the same time point.
Receptor mediated pERK1/2 levels were determined using the AlphaScreen™ ERK1/2 SureFire™ kit, as described previously (Keov, P et al., 2014). For all experiments, 10% FBS was used as internal positive control to stimulate pERK1/2, and which the maximum responses were used for normalization of data, whilst vehicle was used as negative control.
Data analysis: All data were analysed using GraphPad Prism 6.0 (GraphPad Software, San Deigo, Calif., USA). Where appropriate, concentration-response curves were fitted to derive the maximal agonist effect (Emax), and the ligand potency estimate (pEC50), where Emax is the maximal possible response of the system (not the agonist), basal is the basal level of response in the absence of agonist, and pEC50 is the negative logarithm of the agonist concentration that gives a response halfway between Emax and basal.
In the present study, FIp-IN CHO cells and Gateway plasmid were obtained from Invitrogen Inc (Carlsbad, Calif., USA). The sequences for all 3 known human FPRs (hFPR1, hFPR2 and hFPR3) were amplified by PCR and cloned into the Gateway entry vector, pDONR202TM, using the BP clonase enzyme mix, according to the manufacturers' instructions. The hFPR pDONR201TM constructs were subsequently transfected into the pEF5/FRT/V5/dest vector using the LR clonase enzyme mix (Invitrogen).

[1] = Table 9, read-out: potency (pEC50) pERK1/2, hFPR1-FlpInCHO cells in vitro (converted)

| Structure (SMILES) | Time of maximal ERK1/2 phosphorylation in hFPR1-CHO cells (10 μM, pilot timecourse) | Emax (Table 2, percentage of ERK1/2 phosphorylation elicited by 10% FBS, read-out: Emax (%), ERK1/2 phosphorylation, hFPR1-Flpln-CHO) | EC50 (Table 2, read-out: pEC50, ERK1/2 phosphorylation, hFPR1-Flpln-CHO (converted)) | ΔLog(τ/KA), ERK1/2 phosphorylation, hFPR1-Flpln-CHO (Table 8, normalized transduction coefficient, reference agonist Cmpd43) | Emax (Table 8, percent of response elicited by 10% FBS, read-out: Emax, ERK1/2 phosphorylation, hFPR1-Flpln-CHO) | EC50 (Table 8, read-out: pEC50, ERK1/2 phosphorylation, hFPR1-Flpln-CHO (converted)) | Log(τ/KA), ERK1/2 phosphorylation, hFPR1-Flpln-CHO (Table 8, transduction coefficient) | EC50 [1] | ERK Rmax (Table 10, receptor not given) | EC50 (Table 10, receptor not given, values of 10394/10396 equal the hFPR1 values of Table 9, read-out: ERK pEC50 (converted)) |
| --- | --- | --- | --- | --- | --- | --- | --- | --- | --- | --- |
| CC(C)C1C(NC(=O)Nc2ccc(Cl)cc2)C(=O)N(c2ccccc2)N1C (centres unmarked) [BIDI-002] | 5 min | 61 ± 9% | 67.6 nM | 0.0 | 61 ± 9% | 63.1 nM | 7.3 ± 0.1 | 67.6 nM |  |  |
| Cc1cc(Cc2cccnc2)c(=O)n(CC(=O)Nc2ccc(Cl)cc2)n1 [MIPS-0010396] |  |  |  |  |  |  |  | 676 nM | 76 ± 2 | 676 nM |
